The structures appear in SMILES notation.

Data set [1] concerns humanen Ovarialkarzinom-Zellkultur (HOC-7). The experiment in a line: human tumour cloning assay (HTCA): clonal growth of single malignant cells in semisolid media, colonies counted after 21 days. The data set is classed as cell-based. Particulars: for antiproliferative/cytotoxische Wirkung: HOC-7, HTCA, result in words; for Kolonienüberleben: HOC-7, 21 days. From the text:
Zur Prüfung auf ihre antiproliferativen/cytotoxischen Eigenschaften wurden die erfindungsgemäßen Verbindungen der Formel I und II mittels einer humanen Ovarialkarzinom-Zellkultur (HOC-7) getestet, wobei als Testsystem der sogenannte human tumour cloning assay (HTCA) herangezogen wurde, ein System, in dem das klonale Wachstum maligner Einzelzellen in semisoliden Medien selektiv erfaßt wird (vgl. S. Hamburger, Science 197, (1977), 461). Dabei zeigten die Verbindungen eine überraschend hohe antiproliferative/cytotoxische Wirkung.
Das in Beispiel 1 hergestellte 3-DGP sowie DGP-DA von Beispiel 2 wurden hinsichtlich ihrer antiproliferativen/cytotoxischen Eigenschaften mittels einer humanen Ovarialkarzinom-Zellkultur (HOC-7) getestet, wobei als Testsystem der sogenannte human tumour cloning assay (HTCA) herangezogen wurde, ein System, in dem das klonale Wachstum maligner Einzelzellen in semisoliden Medien selektiv erfaßt wird (vgl. S. Hamburger, Science 197, (1977), 461).
Je eine wäßrige Lösung von 3-DGP und DGP-DA wurde in folgender Verdünnungsreihe getestet.
wobei sowohl ein […] (in Form von HgCl₂) als auch ein Ansatz mit Lösungsmittel (Aqua bidest) mitgeführt wurde.
Die Kulturen wurden bei 37°C, 5 % CO₂, 100 % Luftfeuchtigkeit 21 Tage inkubiert, danach wurden die Kultursysteme aufgearbeitet, wobei die gewachsenen Kolonien (Klone) unter dem Mikroskop ausgezählt wurden.
Als Wirksamkeit der getesteten Lösung wurde ein Kolonienüberleben < 50 % der Kontrolle definiert.

Data set [2] is described as follows: stability / hydrolysis in aqueous solution. The data set is classed as physicochemical. Particulars: result in words. Here is the method:
Aus den geeigneten Fraktionen kann hochgereinigte 3-DGP als farbloser, nicht kristallisierender Sirup erhalten werden. Da die Substanz unter wasserfreien oder wasserarmen Bedingungen zur Bildung von dimeren Anhydriden neigt, ist es zweckmäßig, sie als etwa 50 %ige wäßrige Lösung herzustellen und aufzubewahren. […] Erhöhung der Temperatur und Absenken des pH-Wertes beschleunigen diese Zersetzung. Für die Aufbewahrung ist es daher zweckmäßig, Temperaturen von ≦ 4°C und pH-Werte zwischen 5 und 6 einzuhalten. In solchen Lösungen liegt offenbar ein Gemisch der alpha- und beta-Furanosen und des offenkettigen Ketozuckers vor.
Die Glycoside bilden sich außerordentlich leicht aus den Lösungen von 3-DGP in den entsprechenden Alkoholen in Gegenwart sehr geringer Mengen an Säure oder Ionenaustauscher in der H⁺-Form als Katalysator bereits nach kurzer Behandlung bei Raumtemperatur. Ebenso leicht tritt in wäßriger Lösung Hydrolyse der Glycoside ein, so daß unter physiologischen Bedingungen eine Äquivalenz mit freier 3-DGP erwartet werden kann.
Das Dianhydrid der Formel II (R = H) bildet sich leicht bei Behandlung von mäßig sauren 3-DGP-Lösungen mit wasserentziehenden Mitteln, wie z.B. wasserfreiem Natriumsulfat oder Calciumsulfat, oder beim Eindampfen von wäßrigen oder organischen Lösungen von 3-DGP und Stehenlassen des wasserfreien Produktes.

Data set [3] deals with Staphylococcus aureus ATCC 6538. The experiment in a line: preservation test according to DAB 9, VIII, N1 (colony counts over time). The data set is classed as cell-based. Particulars: Staph. aureus; for KBE nach 1 Tag: 1 day; for KBE nach 3 Tagen: 3 days; for KBE nach 10 Tagen: 10 days. From the text:
(§1) Die erfindungsgemäßen Verbindungen weisen eine bakterizide Wirksamkeit auf, wie die nachstehend angegebenen Versuchsergebnisse zeigen: Präparat: Di-deoxy-glyceropentulose-Dianhydrid 0,3 %, 1 % und 3 % Die Untersuchung wurde mit folgenden Keimen durchgeführt: Escherichia coli ATCC 8739 Pseudomonas aeruginosa ATCC 9027 Staphylococcus aureus ATCC 6538 Candida albicans ATCC 10231 Aspergillus niger ATCC 16404 Tabelle 6
(§2) Analog Beispiel 9 wurde die bakterizide Wirksamkeit von DGP untersucht. Präparat: DGP-wässriger Sirup 0,3 %, 1 % und 3 %, Charge: 91621 Die Untersuchung wurde mit folgenden Keimen durchgeführt: Escherichia coli ATCC 8739 Pseudomonas aeruginosa ATCC 9027 Staphyloccus aureus ATCC 6538 Candida albicans ATCC 10231 Aspergillus niger ATCC 16404 Tabelle 7

Data set [4] concerns Pseudomonas aeruginosa ATCC 9027. The data set is described as above. It is filed as cell-based. The conditions noted are these: Pseud. aerug.; for KBE nach 1 Tag: 1 day; for KBE nach 3 Tagen: 3 days; for KBE nach 10 Tagen: 10 days.
Description: as §1, §2

In data set [5] the test system is Escherichia coli ATCC 8739. Described as above. It is filed as cell-based. The conditions noted are these: E. coli; for KBE nach 3 Tagen: 3 days; for KBE nach 10 Tagen: 10 days; for KBE nach 1 Tag: 1 day.
Description: as §1, §2

For data set [6] the following is noted: result in words.

Turning to `COC1(CO)C[C@H](O)CO1` (stereo partly drawn) [Methylglycosid, Methyl-3-Deoxy-D-Glyceropentulosid], in data set [1], the “antiproliferative/cytotoxische Wirkung” value is listed as “eindeutige antiproliferative/cytotoxische Wirkung”.
Take `CCCCOC1(COC(C)=O)C[C@H](OC(C)=O)CO1` (stereo partly drawn) [Diacyl-n-butyl-glycosid, n-Butyl-1,4-Diacetyl-3-Deoxy-D-Glyceropentulosid]: in data set [1], the “antiproliferative/cytotoxische Wirkung” value is recorded as “eindeutige antiproliferative/cytotoxische Wirkung”.
Consider `OC1COC2(COC3(CO2)CC(O)CO3)C1` [DGP-DA, Di-(3-deoxy-D-glyceropentulose)-dianhydrid], for which the “Stabilität der wäßrigen Lösung” value in data set [2] is given as “leicht zum Monomeren spaltbar”. Also, the “KBE nach 1 Tag” value in data set [3] (Konz 0,3 %), in data set [3] (Konz 1 %), in data set [3] (Konz 3 %), in data set [4] (Konz 3 %), in data set [5] (Konz 1 %) and in data set [5] (Konz 3 %) was 0 KBE in each case. In addition, the “KBE nach 3 Tagen” value in data set [3] (Konz 0,3 %), in data set [3] (Konz 1 %), in data set [3] (Konz 3 %), in data set [4] (Konz 3 %), in data set [5] (Konz 0,3 %) and in data set [5] (Konz 1 %) was 0 KBE each time. The “KBE nach 3 Tagen” value in data set [5] (Konz 3 %) is recorded as 0 KBE. Besides, the “KBE nach 10 Tagen” value in data set [3] (Konz 0,3 %), in data set [3] (Konz 1 %), in data set [3] (Konz 3 %), in data set [4] (Konz 3 %), in data set [5] (Konz 0,3 %) and in data set [5] (Konz 1 %) was 0 KBE each time. In addition, the “KBE nach 10 Tagen” value in data set [5] (Konz 3 %) is 0 KBE. The Kolonienüberleben was 30 % = Wirksamkeit in data set [1] (Testkonzentration C (5.000 µg/ml)), 50 % = intermediäre Wirksamkeit in data set [1] (Testkonzentration D (2.500 µg/ml)), 57 % = intermediäre Wirksamkeit in data set [1] (Testkonzentration E (500 µg/ml)) and 61 - 89 % = keine Wirksamkeit in data set [1] (Testkonzentration F-J (250-2,5 µg/ml)).
On to `CCCCOC1(CO)C[C@H](O)CO1` (stereo partly drawn) [n-Butylglycosid, n-Butyl-3-Deoxy-D-Glyceropentulosid], for which, in data set [6], the Löslichkeit entry is on record as “gut löslich in Wasser, Alkoholen und niederen Ketonen”. For the same compound, the “antiproliferative/cytotoxische Wirkung” value in data set [1] is on record as “eindeutige antiproliferative/cytotoxische Wirkung”.
As for `[Cl][Hg][Cl]` [Negativkontrolle, HgCl₂, reference compound], the Kolonienüberleben in data set [1] (Negativkontrolle VI (HgCl₂), concentration not given) came to 0%.
Turning to `O=C(CO)C[C@H](O)CO` [DGP, 3-Deoxy-D-Glyceropentulose], the “Stabilität der wäßrigen Lösung” value in data set [2] was “relativ instabil”. Besides, the “KBE nach 10 Tagen” value in data set [3] (Konz 0,3 %), in data set [3] (Konz 1 %), in data set [3] (Konz 3 %), in data set [4] (Konz 0,3 %), in data set [4] (Konz 1 %) and in data set [4] (Konz 3 %) was 0 KBE each time. The “KBE nach 10 Tagen” value in data set [5] (Konz 3 %) stood at 0 KBE. Moreover, the “KBE nach 3 Tagen” value in data set [3] (Konz 3 %), in data set [4] (Konz 1 %) and in data set [4] (Konz 3 %) was 0 KBE each time. Further, the “KBE nach 1 Tag” value in data set [4] (Konz 3 %) was determined as 15 KBE. Moreover, the Kolonienüberleben is recorded as 0 % = Wirksamkeit in data set [1] (Testkonzentration C-F (5.000-250 µg/ml im Petrischälchen), % of control); 0,08 % = Wirksamkeit in data set [1] (Testkonzentration F1 (200 µg/ml)); 10 % = Wirksamkeit in data set [1] (Testkonzentration F2 (152 µg/ml)); 44 % = intermediäre Wirksamkeit in data set [1] (Testkonzentration F3 (100 µg/ml)); 65 - 84 % = keine Wirksamkeit in data set [1] (Testkonzentration G-J (50-2,5 µg/ml)).
